Patent US20240270762A1, “PENICILLIN-BINDING PROTEIN INHIBITORS” (priority 2021, published 2024)
≈ marks a conversion by molar mass, not a printed value.

Experiments:
A. baumannii CDC-0036 = assay: microbe, parasite or virus in culture; type: cell-based; settings: Acinetobacter baumannii, CDC0036, read-out: MIC, A. baumannii CDC-0036
N. gonorrhoeae WHO X = assay: Liquid broth MIC in Fastidious broth; settings: Neisseria gonorrhoeae, read-out: Minimum Inhibitory Concentration (MIC), N. gonorrhoeae WHO X
N. gonorrhoeae FA1090 = assay: Liquid broth MIC in Fastidious broth; settings: Neisseria gonorrhoeae, FA1090, read-out: Minimum Inhibitory Concentration (MIC), N. gonorrhoeae FA 1090
N. gonorrhoeae WHO G = assay: Liquid broth MIC in Fastidious broth; settings: Neisseria gonorrhoeae, read-out: Minimum Inhibitory Concentration (MIC), N. gonorrhoeae WHO G
[1] = test system: B. humptydooensis ATCC BAA-2767; assay: microbe, parasite or virus in culture; type: cell-based; settings: Burkholderia humptydooensis, ATCCBAA2767, read-out: Minimum inhibitory concentration (MIC), B. humptydooensis ATCC BAA-2767
P. aeruginosa CDC-0090 = assay: microbe, parasite or virus in culture; type: cell-based; settings: Pseudomonas aeruginosa, CDC0090, read-out: Minimum inhibitory concentration, P. aeruginosa CDC-0090
P. aeruginosa CDC-0054 = assay: microbe, parasite or virus in culture; type: cell-based; settings: Pseudomonas aeruginosa, CDC0054, read-out: Minimum inhibitory concentration, P. aeruginosa CDC-0054
P. aeruginosa ATCC 27853 = assay: microbe, parasite or virus in culture; type: cell-based; settings: Pseudomonas aeruginosa, ATCC27853, read-out: Minimum inhibitory concentration, P. aeruginosa ATCC 27853
[2] = test system: N. gonorrhoeae ATCC 49226; assay: Liquid broth MIC in Fastidious broth; settings: Neisseria gonorrhoeae, ATCC49226, read-out: Minimum Inhibitory Concentration (MIC), N. gonorrhoeae ATCC 49226
P. aeruginosa CDC-0110 = assay: microbe, parasite or virus in culture; type: cell-based; settings: Pseudomonas aeruginosa, CDC0110, read-out: Minimum inhibitory concentration, P. aeruginosa CDC-0110
[3] = biological target: T1, PBP3 from Pseudomonas aeruginosa (PAO1) (Pseudomonas aeruginosa, UniProt G3XD46); assay: Bocillin-FL fluorescence polarization competition binding, P. aeruginosa PBP3; settings: Binding affinity to P. aeruginosa PBP3; fluorescence polarization competition binding assay using Bocillin-FL; read-out: P. aeruginosa PBP3 Potency
T1 construct: made in house
T1 sequence (G3XD46 whole entry): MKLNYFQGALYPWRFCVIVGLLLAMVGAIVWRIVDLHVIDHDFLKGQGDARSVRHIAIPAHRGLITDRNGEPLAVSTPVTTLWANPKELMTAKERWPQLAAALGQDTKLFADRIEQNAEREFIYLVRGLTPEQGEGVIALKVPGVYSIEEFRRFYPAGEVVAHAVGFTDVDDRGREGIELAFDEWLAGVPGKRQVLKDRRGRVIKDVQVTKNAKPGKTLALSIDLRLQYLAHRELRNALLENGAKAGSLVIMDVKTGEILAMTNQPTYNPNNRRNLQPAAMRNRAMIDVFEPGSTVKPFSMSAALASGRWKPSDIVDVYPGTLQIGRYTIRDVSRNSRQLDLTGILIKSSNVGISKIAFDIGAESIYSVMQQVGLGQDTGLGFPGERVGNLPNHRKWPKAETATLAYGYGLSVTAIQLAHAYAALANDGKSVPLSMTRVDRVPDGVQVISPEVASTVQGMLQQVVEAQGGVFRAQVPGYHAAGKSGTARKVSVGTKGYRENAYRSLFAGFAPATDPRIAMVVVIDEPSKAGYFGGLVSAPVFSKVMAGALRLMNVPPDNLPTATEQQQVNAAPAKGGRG
How it was run: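 Purified PBPs pre-incubated with inhibitor (E. coli PBP3 1.5 μM, 30 min; P. aeruginosa PBP3 0.75 μM, A. baumannii PBP1a 1 μM and PBP3 0.2 μM, 15 min), then Bocillin-FL 0.1 μM (0.05 μM for PBP1a) added; FP read up to 60 min. EC50 = concentration halving bound Bocillin-FL.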

N. gonorrhoeae WHO M = assay: Liquid broth MIC in Fastidious broth; settings: Neisseria gonorrhoeae, read-out: Minimum Inhibitory Concentration (MIC), N. gonorrhoeae WHO M
A. baumannii CDC-0083 = assay: microbe, parasite or virus in culture; type: cell-based; settings: Acinetobacter baumannii, CDC0083, read-out: MIC, A. baumannii CDC-0083

| SMILES | MIC (A. baumannii CDC-0036) | MIC (N. gonorrhoeae WHO X) | MIC (N. gonorrhoeae FA1090) | MIC (N. gonorrhoeae WHO G) | MIC [1] | MIC (P. aeruginosa CDC-0090) | MIC (P. aeruginosa CDC-0054) | MIC (P. aeruginosa ATCC 27853) | MIC [2] | MIC (P. aeruginosa CDC-0110) | IC50 [3] | MIC (N. gonorrhoeae WHO M) | MIC (A. baumannii CDC-0083) |
| --- | --- | --- | --- | --- | --- | --- | --- | --- | --- | --- | --- | --- | --- |
| O=C(CN1CCN(C(=O)NC(C(=O)N[C@H]2Cc3ccc(F)c(C(=O)O)c3OB2O)c2cc(F)c(O)c(O)c2Cl)C(=O)C1=O)Nc1ccncc1 (stereo partly drawn) [Example 233, (3R)-3-(2-(2-chloro-5-fluoro-3,4-dihydroxyphenyl)-2-(2,3-dioxo-4-(2-oxo-2-(pyridin-4-ylamino)ethyl)piperazine-1-carboxamido)acetamido)-7-fluoro-2-hydroxy-3,4-dihydro-2H-benzo[e][1,2]oxaborinine-8-carboxylic acid] | 2 to 4 µg/mL (≈ 2.79 to 5.58 µM) | > 64 µg/mL | 1 to 2 µg/mL (≈ 1.4 to 2.79 µM) | 4 to 8 µg/mL (≈ 5.58 to 11.2 µM) | < 1 µg/mL | < 1 µg/mL | < 1 µg/mL | < 1 µg/mL | 4 to 8 µg/mL (≈ 5.58 to 11.2 µM) | < 1 µg/mL | < 10 µM | 4 to 8 µg/mL (≈ 5.58 to 11.2 µM) | < 1 µg/mL |
| O=C(CN1CCN(C(=O)NC(C(=O)N[C@H]2Cc3ccc(F)c(C(=O)O)c3OB2O)c2cc(F)c(O)c(O)c2Cl)C(=O)C1=O)Nc1cccnc1 (stereo partly drawn) [Example 234, (3R)-3-(2-(2-chloro-5-fluoro-3,4-dihydroxyphenyl)-2-(2,3-dioxo-4-(2-oxo-2-(pyridin-3-ylamino)ethyl)piperazine-1-carboxamido)acetamido)-7-fluoro-2-hydroxy-3,4-dihydro-2H-benzo[e][1,2]oxaborinine-8-carboxylic acid] | 2 to 4 µg/mL (≈ 2.79 to 5.58 µM) | > 64 µg/mL | 1 to 2 µg/mL (≈ 1.4 to 2.79 µM) | 4 to 8 µg/mL (≈ 5.58 to 11.2 µM) | < 1 µg/mL | 2 to 4 µg/mL (≈ 2.79 to 5.58 µM) | 2 to 4 µg/mL (≈ 2.79 to 5.58 µM) | 2 to 4 µg/mL (≈ 2.79 to 5.58 µM) | 4 to 8 µg/mL (≈ 5.58 to 11.2 µM) | < 1 µg/mL | < 10 µM | 4 to 8 µg/mL (≈ 5.58 to 11.2 µM) | < 1 µg/mL |
| O=C(CN1CCN(C(=O)NC(C(=O)N[C@H]2Cc3ccc(F)c(C(=O)O)c3OB2O)c2cc(F)c(O)c(O)c2Cl)C(=O)C1=O)Nc1nccs1 (stereo partly drawn) [Example 235, (3R)-3-(2-(2-chloro-5-fluoro-3,4-dihydroxyphenyl)-2-(2,3-dioxo-4-(2-oxo-2-(thiazol-2-ylamino)ethyl)piperazine-1-carboxamido)acetamido)-7-fluoro-2-hydroxy-3,4-dihydro-2H-benzo[e][1,2]oxaborinine-8-carboxylic acid] | 2 to 4 µg/mL (≈ 2.77 to 5.53 µM) | > 64 µg/mL | 1 to 2 µg/mL (≈ 1.38 to 2.77 µM) | 4 to 8 µg/mL (≈ 5.53 to 11.1 µM) | < 1 µg/mL | 2 to 4 µg/mL (≈ 2.77 to 5.53 µM) | 8 to 16 µg/mL (≈ 11.1 to 22.1 µM) | 2 to 4 µg/mL (≈ 2.77 to 5.53 µM) | 16 to 32 µg/mL (≈ 22.1 to 44.3 µM) | < 1 µg/mL | < 10 µM | 4 to 8 µg/mL (≈ 5.53 to 11.1 µM) | < 1 µg/mL |
| O=C(CN1CCN(C(=O)NC(C(=O)N[C@H]2Cc3ccc(F)c(C(=O)O)c3OB2O)c2cc(F)c(O)c(O)c2Cl)C(=O)C1=O)NCc1cccc(O)c1 (stereo partly drawn) [Example 237, (3R)-3-(2-(2-chloro-5-fluoro-3,4-dihydroxyphenyl)-2-(4-(2-((3-hydroxybenzyl)amino)-2-oxoethyl)-2,3-dioxopiperazine-1-carboxamido)acetamido)-7-fluoro-2-hydroxy-3,4-dihydro-2H-benzo[e][1,2]oxaborinine-8-carboxylic acid] | 8 to 16 µg/mL (≈ 10.7 to 21.5 µM) | > 64 µg/mL | 1 to 2 µg/mL (≈ 1.34 to 2.68 µM) | 4 to 8 µg/mL (≈ 5.36 to 10.7 µM) | 2 to 4 µg/mL (≈ 2.68 to 5.36 µM) | 2 to 4 µg/mL (≈ 2.68 to 5.36 µM) | 8 to 16 µg/mL (≈ 10.7 to 21.5 µM) | 2 to 4 µg/mL (≈ 2.68 to 5.36 µM) | 16 to 32 µg/mL (≈ 21.5 to 42.9 µM) | < 1 µg/mL | < 10 µM | 4 to 8 µg/mL (≈ 5.36 to 10.7 µM) | > 128 µg/mL |
| O=C(CN1CCN(C(=O)NC(C(=O)N[C@H]2Cc3ccc(F)c(C(=O)O)c3OB2O)c2cc(F)c(O)c(O)c2Cl)C(=O)C1=O)NCc1ccccc1 (stereo partly drawn) [Example 238] | 8 to 16 µg/mL (≈ 11 to 21.9 µM) | > 64 µg/mL | 1 to 2 µg/mL (≈ 1.37 to 2.74 µM) | 4 to 8 µg/mL (≈ 5.48 to 11 µM) | > 128 µg/mL | 2 to 4 µg/mL (≈ 2.74 to 5.48 µM) | 2 to 4 µg/mL (≈ 2.74 to 5.48 µM) | 2 to 4 µg/mL (≈ 2.74 to 5.48 µM) | 16 to 32 µg/mL (≈ 21.9 to 43.8 µM) | < 1 µg/mL | < 10 µM | 4 to 8 µg/mL (≈ 5.48 to 11 µM) | > 128 µg/mL |
| O=C(CN1CCN(C(=O)N[C@@H](C(=O)N[C@H]2Cc3ccc(F)c(C(=O)O)c3OB2O)c2cc(F)c(O)c(O)c2Cl)C(=O)C1=O)NCc1ccncc1 [Example 239, (R)-3-((R)-2-(2-chloro-5-fluoro-3,4-dihydroxyphenyl)-2-(2,3-dioxo-4-(2-oxo-2-((pyridin-4-ylmethyl)amino)ethyl)piperazine-1-carboxamido)acetamido)-7-fluoro-2-hydroxy-3,4-dihydro-2H-benzo[e][1,2]oxaborinine-8-carboxylic acid] | 2 to 4 µg/mL (≈ 2.74 to 5.47 µM) | > 64 µg/mL | 1 to 2 µg/mL (≈ 1.37 to 2.74 µM) | 4 to 8 µg/mL (≈ 5.47 to 10.9 µM) | 32 to 64 µg/mL (≈ 43.8 to 87.6 µM) | 2 to 4 µg/mL (≈ 2.74 to 5.47 µM) | 2 to 4 µg/mL (≈ 2.74 to 5.47 µM) | 2 to 4 µg/mL (≈ 2.74 to 5.47 µM) | 16 to 32 µg/mL (≈ 21.9 to 43.8 µM) | < 1 µg/mL | < 10 µM | 4 to 8 µg/mL (≈ 5.47 to 10.9 µM) | < 1 µg/mL |
| O=C(CN1CCN(C(=O)NC(C(=O)N[C@H]2Cc3ccc(F)c(C(=O)O)c3OB2O)c2cc(F)c(O)c(O)c2Cl)C(=O)C1=O)NCc1cccnc1 (stereo partly drawn) [Example 240, (3R)-3-(2-(2-chloro-5-fluoro-3,4-dihydroxyphenyl)-2-(2,3-dioxo-4-(2-oxo-2-((pyridin-3-ylmethyl)amino)ethyl)piperazine-1-carboxamido)acetamido)-7-fluoro-2-hydroxy-3,4-dihydro-2H-benzo[e][1,2]oxaborinine-8-carboxylic acid] | 2 to 4 µg/mL (≈ 2.74 to 5.47 µM) | > 64 µg/mL | 1 to 2 µg/mL (≈ 1.37 to 2.74 µM) | 4 to 8 µg/mL (≈ 5.47 to 10.9 µM) | 2 to 4 µg/mL (≈ 2.74 to 5.47 µM) | 2 to 4 µg/mL (≈ 2.74 to 5.47 µM) | < 1 µg/mL | < 1 µg/mL | 16 to 32 µg/mL (≈ 21.9 to 43.8 µM) | < 1 µg/mL | < 10 µM | 4 to 8 µg/mL (≈ 5.47 to 10.9 µM) | > 128 µg/mL |
| O=C(CN1CCN(C(=O)N[C@@H](C(=O)N[C@H]2Cc3ccc(F)c(C(=O)O)c3OB2O)c2cc(F)c(O)c(O)c2Cl)C(=O)C1=O)NCc1nccs1 [Example 241, (R)-3-((R)-2-(2-chloro-5-fluoro-3,4-dihydroxyphenyl)-2-(2,3-dioxo-4-(2-oxo-2-((thiazol-2-ylmethyl)amino)ethyl)piperazine-1-carboxamido)acetamido)-7-fluoro-2-hydroxy-3,4-dihydro-2H-benzo[e][1,2]oxaborinine-8-carboxylic acid] | 2 to 4 µg/mL (≈ 2.71 to 5.43 µM) | > 64 µg/mL | 1 to 2 µg/mL (≈ 1.36 to 2.71 µM) | 4 to 8 µg/mL (≈ 5.43 to 10.9 µM) | 2 to 4 µg/mL (≈ 2.71 to 5.43 µM) | 2 to 4 µg/mL (≈ 2.71 to 5.43 µM) | < 1 µg/mL | < 1 µg/mL | 4 to 8 µg/mL (≈ 5.43 to 10.9 µM) | < 1 µg/mL | < 10 µM | 4 to 8 µg/mL (≈ 5.43 to 10.9 µM) | > 128 µg/mL |
| O=C(NCCN1CCN(C(=O)NC(C(=O)N[C@H]2Cc3ccc(F)c(C(=O)O)c3OB2O)c2cc(F)c(O)c(O)c2Cl)C1=O)c1ccccc1 (stereo partly drawn) [Example 242, (3R)-3-(2-(3-(2-benzamidoethyl)-2-oxoimidazolidine-1-carboxamido)-2-(2-chloro-5-fluoro-3,4-dihydroxyphenyl)acetamido)-7-fluoro-2-hydroxy-3,4-dihydro-2H-benzo[e][1,2]oxaborinine-8-carboxylic acid] | 2 to 4 µg/mL (≈ 2.85 to 5.7 µM) | > 64 µg/mL | 1 to 2 µg/mL (≈ 1.42 to 2.85 µM) | 16 to 32 µg/mL (≈ 22.8 to 45.6 µM) | 8 to 16 µg/mL (≈ 11.4 to 22.8 µM) | < 1 µg/mL | 2 to 4 µg/mL (≈ 2.85 to 5.7 µM) | 2 to 4 µg/mL (≈ 2.85 to 5.7 µM) | 16 to 32 µg/mL (≈ 22.8 to 45.6 µM) | 2 to 4 µg/mL (≈ 2.85 to 5.7 µM) | < 10 µM | 16 to 32 µg/mL (≈ 22.8 to 45.6 µM) | 2 to 4 µg/mL (≈ 2.85 to 5.7 µM) |
